Results as given in patent EP3967331A1, “ULTRA-SMALL FLUORESCENT ORGANIC NANOPARTICLES” (Centre national de la recherche scientifique, priority 2020, dated 2022).

Test: Nile Red probing of the hydrophobic core
Type: physicochemical
Conditions: Nile Red 200 nM, excitation 540 nm, water
Experimental: In contrast to the out-stretched configuration of a polymer brush, the folded monomolecular nanoparticle is expected to bear a hydrophobic core (Figure 1), similar to that of micelles made of surfactants. To evidence the presence of this core, we used a solvatochromic dye Nile Red, which is a common tool for identifying low polar environment of micelles^81 and single-chain polymeric NPs. Fluorescence spectra of Nile Red at fixed concentration (200 nM) were recorded with addition of different concentrations of fully PEGylated PMAO polymer with 5 mol% BDP1 (Figure12. A drastic increase in the fluorescence intensity of Nile Red was observed accompanied by ∼30 nm blue shift of the emission band (Figure12A,B,D. The increase in the intensity stabilized above 200 nM polymer concentration (Figure12C, which corresponded well to 1/1 dye/polymer molar ratio. Below this concentration, multiple Nile Red molecules per particle can be present, which leads to dye self-quenching, explaining lower intensity at lower polymer concentrations. On the other hand, the blue shifted emission of Nile Red at ∼630 nm indicates the presence of a hydrophobic binding site in these NPs. The NPs were compared with micelles of Tween 80, having a hydrophobic core formed by hydrocarbon chains. […]

CCCCCCCC/C=C\CCCCCCCC(=O)OCCOCC(OCCO)C1OCC(OCCO)C1OCCO (stereo not shown) [Tween 80]
Emission of Nile Red: ~640 nm
